Patent publication US11034666B2, “Anti-inflammatory and antitumor 2-oxothiazoles and 2-oxothiophenes compounds” (Avexxin AS, priority 2013, dated 2021)
Values joined by “and” are separate entries in the source; they are usually repeats but may differ in a detail not shown here. Equal entries are not always repeated. Where two headings read alike, the source gives them in different places.

Key:
[1] = test system: AA release in SW982 cells; experiment: Ex vivo cellular arachidonic acid (AA) release assay, IL-1β stimulated; type: cell-based, human; details: for IC50 / inhibition: Homo sapiens; for inhibition: % inhibition at 10 pM oxothiazole (so in the source), read-out: AA release % Inhib
Description: (§1) The effect of the oxothiazoles synthesized on the release of AA and OA in synoviocytes was evaluated as previously described.^54 The percent inhibition of AA and OA was determined at a 10 μM inhibitor concentration, while for the determination of the IC50 value the inhibitors were tested in a 0-20 μM range after IL-1β stimulation for 4 h.
(§2) The human synovial sarcoma cell line SW982 was from ATCC (UK) and was used as a model system to monitor AA/OA release and activation of GIVA cPLA2. SW982 cells were passaged bi-weekly by routine trypsin detachment and kept in a sub-confluent state. The cells were maintained in Dulbecco's Modified Eagle Medium (DMEM) supplemented with 10% FBS, 0.1 mg/mL gentamicin and 0.3 mg/mL L-glutamine at 37° C. with 10% CO2. For AA release, 5*10^5 cells were seeded pr well in a 48-well per plate format. Experiments were performed at 3 days post-confluency following overnight serum deprivation in serum-free DMEM to ensure differentiation and synchronization of the cells.
(§3) AA and OA release was analyzed as previously described.^54 At 2 days post-confluency, SW982 cells were serum-starved and labelled overnight with ^3H-AA (0.4 μCi/ml) and ^14C-OA (0.067 μCi/ml) in serum-free DMEM. Prior to the addition of oxothiazoles, the cells were washed twice with PBS containing fBSA (2 mg/ml) and PBS in order to remove unincorporated radioactivity. Cells were pretreated (1 h) with oxothiazoles prior to IL-1β stimulation (10 ng/mL, 4 h). Following IL-1β stimulation, the supernatants were cleared of detached cells by centrifugation (13000 rpm, 5 min). The release of ^3H-AA and ^14C-OA from the cells was assessed by liquid scintillation counting (LS 6500 Multi-Purpose Scintillation Counter, Beckman Coulter, Inc (USA). Adherent cells were dissolved in 1N NaOH in order to determine incorporated ^3H-AA and ^14C-OA in the cells by liquid scintillation counting. In all experiments, DMSO was included for vehicle control ([…]0.05%).
(§4) Following treatments, cells were routinely observed by microscopy to ensure unaltered cell morphology, integrity and viability. The results are given as inhibition of released ^3H-AA and ^14C-OA in the supernatants relative to total ^3H-AA and ^14C-OA incorporated into the cells, from at least three independent experiments performed in triplicates.

[2] = test system: OA release in SW982 cells; experiment: Ex vivo cellular oleic acid (OA) release assay, IL-1β stimulated; type: cell-based; details: Homo sapiens; SW982 synoviocytes; 4 h IL-1β stimulation; % inhibition at 10 pM oxothiazole (so in the source); read-out: OA release % Inhib
Description: as §1, §2, §3, §4

[3] = target: T1, human GIVA cPLA2 (Homo sapiens, UniProt P47712); experiment: In vitro mixed micelle assay, GIVA cPLA2; type: biochemical; details: for inhibition at 0.091 mole fraction: 0.091 mole fraction of inhibitor, read-out: GIVA cPLA2 % Inhib; for inhibition of GIVA cPLA2 (in words): mixed micelle assay, comment on Table 6
T1 sequence (P47712 1-749): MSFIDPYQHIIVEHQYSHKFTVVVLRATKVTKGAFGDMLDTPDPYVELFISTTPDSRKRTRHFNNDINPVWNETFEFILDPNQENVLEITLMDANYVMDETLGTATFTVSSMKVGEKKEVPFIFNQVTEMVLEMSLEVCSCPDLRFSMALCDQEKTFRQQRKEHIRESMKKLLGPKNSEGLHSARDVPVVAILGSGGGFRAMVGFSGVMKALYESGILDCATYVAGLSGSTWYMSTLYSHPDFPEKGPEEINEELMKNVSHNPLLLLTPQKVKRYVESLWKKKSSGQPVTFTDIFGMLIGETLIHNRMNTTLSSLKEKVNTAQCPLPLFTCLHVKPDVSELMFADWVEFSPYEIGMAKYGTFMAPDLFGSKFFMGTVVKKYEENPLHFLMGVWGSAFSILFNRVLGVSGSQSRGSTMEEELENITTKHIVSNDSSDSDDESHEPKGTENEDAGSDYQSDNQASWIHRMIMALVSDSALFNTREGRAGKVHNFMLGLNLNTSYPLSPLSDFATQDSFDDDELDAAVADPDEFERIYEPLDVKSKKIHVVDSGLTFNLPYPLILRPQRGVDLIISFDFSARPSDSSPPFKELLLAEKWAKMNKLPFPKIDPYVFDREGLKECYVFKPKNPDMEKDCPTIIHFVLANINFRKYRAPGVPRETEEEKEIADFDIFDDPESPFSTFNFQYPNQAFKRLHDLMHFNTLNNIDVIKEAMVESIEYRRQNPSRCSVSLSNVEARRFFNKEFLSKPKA
Description: At first, the percent of inhibition for each PLA2 enzyme at 0.091 mole fraction of each inhibitor was determined. […] The XI(50) is the mole fraction of the inhibitor in the total substrate interface required to inhibit the enzyme activity by 50%. […] (ii) GVI iPLA2 substrate mixed-micelles were composed of 400 μM Triton X-100, 98.3 μM PAPC, and 1.7 μM ^14C-labeled PAPC in buffer containing 100 mM HEPES, pH 7.5, 2 mM ATP, and 4 mM DTT; (iii) GV sPLA2 substrate mixed-micelles were composed of 400 μM Triton X-100, 98.3 μM PAPC, and 1.7 μM ^14C-labeled PAPC in buffer containing 50 mMTris, pH 8.0, and 5 mM […] CaCl2.

[4] = SW982 cells, tested 0-20 μM, Tables 2 and 4, read-out: AA release SW982 cells (0-20 μM) IC50
[5] = SW982 synoviocytes, 4 h IL-1β stimulation
[6] = SW982 synoviocytes, tested in 0-20 μM range, 4 h IL-1β stimulation, read-out: AA release IC50
[7] = mixed micelles, mole fraction of inhibitor for 50% inhibition, Table 6

SMILES | IC50 [1, 4] [µM] | inhibition [1, 5] [%] | IC50 [1, 6] [µM] | inhibition at 10 µM [2] [%] | GIVA cPLA2 XI(50) ([3]; Table 2, mole fraction of inhibitor in the total substrate interface for 50% inhibition) [mole fraction] | GIVA cPLA2 % Inhibition ([3]; Tables 2 and 4) [%] | inhibition at 0.091 mole fraction ([3]; mixed micelles, Table 6) [%] | GIVA cPLA2 XI(50) [3, 7] | inhibition of the AA release (in words) ([1]; SW982 synoviocytes) | inhibition of GIVA cPLA2 (in words) [3]
CCCCCCCCc1ccc(OCC(=O)c2nc(C(=O)OC)cs2)cc1 [Compound A, Methyl 2-(2-(4-octylphenoxy)acetyl)thiazole-4-carboxylate] | ~0.6 | > 90 | 0.6 | 40 | 0.011 | >90 | > 90 | 0.011 mole fraction and 0.011 ± 0.005 mole fraction | – | –
O=C(COc1ccc(-c2ccccc2)cc1)c1nccs1 [Compound B, 2-(Biphenyl-4-yloxy)-1-(thiazol-2-yl)ethanone] | ~2.5 | 73 | 2.8 | 25 | – | – | 80 | – | interesting inhibition | did not present any interesting inhibition
O=C(COc1ccc(F)cc1)c1nccs1 [Compound C, 2-(4-Fluorophenoxy)-1-(thiazol-2-yl)ethanone] | > 20 | 0 | – | 25 | – | – | 58 | – | – | did not present any interesting inhibition
O=C(COc1ccccc1)c1nccs1 [Compound D, 2-Phenoxy-1-(thiazol-2-yl)ethanone] | > 20 | 12 | > 20 | 20 | – | – | 40 | – | – | did not present any interesting inhibition
CCCCCCCCc1ccc(OCC(=O)c2nccs2)cc1 [Compound T, 2-(4-Octylphenoxy)-1-(thiazol-2-yl)ethanone] | – | > 90 | 3.6 | 0 | – | – | > 90 | 0.02 ± 0.007 mole fraction | interesting inhibition | significant inhibitory activity
CCCCCCCCCCCCOCC(=O)c1nc(C(=O)OCC)cs1 [Compound W, Ethyl 2-(2-(dodecyloxy)acetyl)thiazole-4-carboxylate] | – | 9 | > 20 | 0 | – | – | 48 | – | interesting inhibition | –
CCCCCCCCCCCCOCC(=O)c1nc(CC(=O)OCC)cs1 [Compound X, Ethyl 2-(2-(2-(dodecyloxy)acetyl)thiazol-4-yl)acetate] | – | 0 | – | 0 | – | – | 49 | – | interesting inhibition | proved inactive
CCCCCCCCc1ccc(OCC(=O)c2nc(CC(=O)OCC)cs2)cc1 [Compound Y, Ethyl 2-(2-(2-(4-octylphenoxy)acetyl)thiazol-4-yl)acetate] | – | 71 | 5 | 20 | – | – | 64 | – | – | dramatic loss of the activity
